For test [1], the target named is T1, Oxytocin receptor (Homo sapiens) (UniProt P30559).
T1 sequence (whole entry): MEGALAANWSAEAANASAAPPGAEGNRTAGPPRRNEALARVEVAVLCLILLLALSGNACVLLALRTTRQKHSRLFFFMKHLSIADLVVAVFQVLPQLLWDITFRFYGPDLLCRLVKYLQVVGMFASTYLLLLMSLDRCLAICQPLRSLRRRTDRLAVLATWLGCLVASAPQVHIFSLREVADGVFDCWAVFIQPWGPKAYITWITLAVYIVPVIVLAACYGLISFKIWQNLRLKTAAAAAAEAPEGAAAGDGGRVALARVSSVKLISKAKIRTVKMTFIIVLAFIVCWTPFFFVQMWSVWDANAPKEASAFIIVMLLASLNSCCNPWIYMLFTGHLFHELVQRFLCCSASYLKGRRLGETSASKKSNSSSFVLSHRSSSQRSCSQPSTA
In words: Agonist activity at human OTR receptor expressed in CHO cells assessed as increase in myo-inositol 1-phosphate accumulation at 1 uM by IP-One assay relative to OT. It counts as functional, cell-based.

Test [2] deals with T1, Oxytocin receptor (Homo sapiens). The experiment in a line: Antagonist activity at human OTR receptor expressed in CHO cells assessed as inhibition of OT-induced myo-inositol 1-phosphate accumulation by IP-One assay. It is filed as functional, cell-based.
Test [3] addresses T2, Vasopressin V1a receptor (Homo sapiens, UniProt P37288). The experiment in a line: Agonist activity at human V1A receptor expressed in CHO cells assessed as increase in myo-inositol 1-phosphate accumulation at 1 uM by IP-One assay relative to AVP. It is filed as functional, cell-based.
Target sequence in this assay (P37288 whole entry, looked up): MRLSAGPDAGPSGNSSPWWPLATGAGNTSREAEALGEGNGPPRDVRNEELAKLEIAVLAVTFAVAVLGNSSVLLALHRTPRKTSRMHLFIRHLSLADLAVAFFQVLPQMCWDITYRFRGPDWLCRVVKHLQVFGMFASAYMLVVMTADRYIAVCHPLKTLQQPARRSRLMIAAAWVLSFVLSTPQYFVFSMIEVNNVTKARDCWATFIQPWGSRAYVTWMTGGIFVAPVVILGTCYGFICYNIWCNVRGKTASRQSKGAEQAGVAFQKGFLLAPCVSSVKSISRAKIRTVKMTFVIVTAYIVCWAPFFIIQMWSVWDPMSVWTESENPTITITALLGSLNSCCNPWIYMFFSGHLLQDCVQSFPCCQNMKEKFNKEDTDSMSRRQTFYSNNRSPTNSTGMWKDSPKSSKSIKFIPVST
For test [4], the target named is T2, Vasopressin V1a receptor. The experiment in a line: Displacement of [3H]-AVP from human V1A receptor expressed in CHO cell membranes by radioligand binding assay. Background: Displacement assays read how much labelled ligand stays bound in the presence of the test substance.
Target sequence in this assay (P37288 whole entry): as the sequence (P37288 whole entry, looked up) above
Another test deals with T3, Oxytocin receptor (Homo sapiens, UniProt P30559).
T3 sequence (P30559 whole entry): T1 sequence (whole entry)
The experiment in a line: Displacement of [3H]-AVP from human OXR receptor expressed in CHO cell membranes by radioligand binding assay.

Test [5] addresses T4, Vasopressin V2 receptor (Homo sapiens, UniProt P30518). In words: Agonist activity at human V2 receptor expressed in CHO cells assessed as increase in cAMP accumulation by cAMP dynamic 2 assay. It is filed as functional, cell-based.
Test [6] concerns the target T4, Vasopressin V2 receptor. In words: Displacement of [3H]-AVP from human V2 receptor expressed in CHO cell membranes by radioligand binding assay.
The target of test [7] is T2, Vasopressin V1a receptor. In words: Antagonist activity at human V1A receptor expressed in CHO cells assessed as inhibition of AVP-induced myo-inositol 1-phosphate accumulation by IP-One assay. It counts as functional, cell-based.
Target sequence in this assay (P37288 whole entry, looked up): as above
In test [8] the target is T1, Oxytocin receptor (Homo sapiens). The experiment in a line: Antagonist activity at human OTR receptor expressed in CHO cells assessed as inhibition of OT-induced myo-inositol 1-phosphate accumulation at 1 uM by IP-One assay relative to OT. It is filed as functional, cell-based.
In test [9] the target is T2, Vasopressin V1a receptor. In words: Antagonist activity at human V1A receptor expressed in CHO cells assessed as inhibition of AVP-induced myo-inositol 1-phosphate accumulation at 1 uM by IP-One assay relative to AVP. It counts as functional, cell-based.
Target sequence in this assay (P37288 whole entry, looked up): as above
The species named for the next test is Homo sapiens. In words: Selectivity for human V1a receptor over human V2 receptor.

A value given as a limit tells only on which side of the number the result lay.

T4 sequence (P30518 whole entry): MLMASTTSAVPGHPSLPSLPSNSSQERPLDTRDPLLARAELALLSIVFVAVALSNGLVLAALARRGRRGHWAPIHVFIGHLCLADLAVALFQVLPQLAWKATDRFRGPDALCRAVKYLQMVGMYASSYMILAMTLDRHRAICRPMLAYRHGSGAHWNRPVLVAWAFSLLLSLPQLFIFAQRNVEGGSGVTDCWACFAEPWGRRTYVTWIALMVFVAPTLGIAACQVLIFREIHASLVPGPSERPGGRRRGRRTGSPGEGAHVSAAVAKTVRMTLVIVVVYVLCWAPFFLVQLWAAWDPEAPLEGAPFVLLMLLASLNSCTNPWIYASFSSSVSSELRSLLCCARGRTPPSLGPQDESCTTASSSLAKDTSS

The Emax is the greatest response seen or fitted, relative to the assay's reference. The Ki is a dissociation constant, usually derived from enzyme kinetics or from competition with a known ligand. Lower therefore signals tighter binding. For `CCCCc1ccc(C(=O)N2CCCCc3ccccc32)cc1`, the Emax (in test [1]; on Vasopressin V1a receptor [3]) was less than 10% throughout. Further, the values for the Kinact (in [2]; at Vasopressin V1a receptor [7]) were 113 nM and 421 nM, respectively. The values for the inhibition constant Ki on Vasopressin V1a receptor [4], on Oxytocin receptor and on Vasopressin V2 receptor [6] were 28 nM, 37.4 nM and 52 nM, respectively. Also, on Vasopressin V2 receptor [5], the Kact is 18 nM.

As usually defined, the inhibition is the drop in the measured response relative to a control, in per cent. In the case of `O=C(c1ccc(-c2ncccn2)cc1)N1CCCCc2ccccc21`, the maximal effect (Emax) (in test [1]; at Vasopressin V1a receptor [3]) was less than 10% in each case. Besides, the values for the inhibition constant (Ki) on Vasopressin V1a receptor [4], on Oxytocin receptor and at Vasopressin V2 receptor [6] were 573 nM, 340 nM and 334 nM, respectively. For the same compound, the inhibition in test [8] turned out to be 30.6%. In addition, the Kinact on Vasopressin V1a receptor [7] came out at 177 nM.

As for `O=C(c1ccc(Cl)cc1)N1CCCCc2ccccc21`, the Emax (in test [1]; at Vasopressin V1a receptor [3]) was less than 10% in each case. For the same compound, the figures for the inhibition constant (Ki) on Vasopressin V1a receptor [4], at Oxytocin receptor and at Vasopressin V2 receptor [6] were 556 nM, less than 10 nM and 507 nM, respectively. The inhibition in test [8] was found to be 24.1%. At Vasopressin V1a receptor [7], the Kinact amounted to 149 nM.

For `C[N+](C)(C)c1ccc(C(=O)N2CCCCc3ccccc32)cc1`, the Emax (in test [1]; on Vasopressin V1a receptor [3]) was less than 10% throughout. In addition, the inhibitory constant (Ki) on Vasopressin V1a receptor [4] is greater than 1000 nM; at Oxytocin receptor, less than 10 nM; on Vasopressin V2 receptor [6] it was greater than 1000 nM. Further, the inhibition turned out to be 19% in [8] and 15% at Vasopressin V1a receptor [9].

As for `Nc1ccc(C(=O)N2CCCCc3ccccc32)cc1`, the Emax (in test [1]; on Vasopressin V1a receptor [3]) was less than 10% each time. Besides, the inhibition constant (Ki) was 734 nM on Vasopressin V1a receptor [4], less than 10 nM at Oxytocin receptor and greater than 1000 nM at Vasopressin V2 receptor [6]. The values for the inhibition (in test [8]; on Vasopressin V1a receptor [9]) were 15% and 37%, respectively.

Turning to `Cc1ccn(-c2ccc(C(=O)N3CCCC(N(C)C)c4ccccc43)cc2)n1` (stereo unspecified), the maximal effect (Emax) on Vasopressin V1a receptor [3] is less than 10%. Moreover, the Ki on Vasopressin V1a receptor [4] is 741 nM; on Oxytocin receptor, 1330 nM; on Vasopressin V2 receptor [6] it was greater than 1000 nM. Moreover, the values for the inhibition (in test [8]; on Vasopressin V1a receptor [9]) were 21% and 15%, respectively. Besides, in the test listed under Homo sapiens, the Selectivity ratio was less than 0.74.

Consider `Cc1ccn(-c2ccc(C(=O)N3CCCC(=O)c4ccccc43)cc2)n1`, for which, at Vasopressin V1a receptor [3], the maximum response (Emax) is less than 10%. Moreover, the results for the Ki on Vasopressin V1a receptor [4], at Oxytocin receptor and at Vasopressin V2 receptor [6] were less than 10 nM, less than 10 nM and greater than 1000 nM, respectively. For the same compound, the inhibition on Vasopressin V1a receptor [9] came to 19%.

As for `Cc1ccn(-c2ccc(C(=O)N3CCCC(=O)c4ccccc43)c(Cl)c2)n1`, the Emax on Vasopressin V1a receptor [3] is less than 10%. Further, the Ki on Vasopressin V1a receptor [4], on Oxytocin receptor and at Vasopressin V2 receptor [6] was less than 10 nM throughout. In addition, the inhibition in test [8] is 14%; at Vasopressin V1a receptor [9], less than 10%.

In the case of `O=C(c1ccc(I)cc1)N1CCCCc2ccccc21`, the Emax (in [1]; at Vasopressin V1a receptor [3]) was less than 10% each time. The figures for the Ki on Vasopressin V1a receptor [4], on Oxytocin receptor and on Vasopressin V2 receptor [6] were 48 nM, 396 nM and 160 nM, respectively. Moreover, the inhibition in test [8] amounted to 36%. Also, the Kinact on Vasopressin V1a receptor [7] stood at 15 nM.

As to `Cc1ccn(-c2ccc(C(=O)N3CCCCCC3)c(Cl)c2)n1`, the maximal effect (Emax) on Vasopressin V1a receptor [3] is less than 10%. Further, the Ki at Vasopressin V1a receptor [4], on Oxytocin receptor and on Vasopressin V2 receptor [6] was less than 10 nM each time. Besides, the inhibition (in test [8]; at Vasopressin V1a receptor [9]) was less than 10% throughout.

`O=C(c1ccc(Br)cc1)N1CCCCc2ccccc21`: the Emax (in test [1]; at Vasopressin V1a receptor [3]) was less than 10% in each case. Further, the Ki is 504 nM on Vasopressin V1a receptor [4], less than 10 nM at Oxytocin receptor and 713 nM on Vasopressin V2 receptor [6]. Moreover, the inhibition in test [8] came to 20%. The Kinact on Vasopressin V1a receptor [7] was 218 nM.

Take `CC(=O)Nc1ccc(C(=O)N2CCCCc3ccccc32)cc1`: the maximal response (Emax) (in test [1]; on Vasopressin V1a receptor [3]) was less than 10% in each case. The values for the Ki on Vasopressin V1a receptor [4], on Oxytocin receptor and on Vasopressin V2 receptor [6] were 1080 nM, greater than 1000 nM and greater than 1000 nM, respectively. Also, the inhibition in test [8] turned out to be 32%. At Vasopressin V1a receptor [7], the Kinact amounted to 305 nM.
